One data set addresses T1, 5-HT2B receptor (Homo sapiens, UniProt P41595).
T1 construct: expressed in transfected cells; host or cells: HEK293, stably transfected
As to the kind of experiment: cell-based. The class given is cell-based. To be noted: Ca2+ flux; for Emax: HEK293, agonist, HEK293, max dose, read-out: 5-HT2B % Act @ Max Dose; for EC50: agonist, HEK293. As to the method:
(§1) Functional Assays at 5-HT2A, 5-HT2B, and 5-HT1A. Agonist activity at 5-HT2A, 5-HT2B, 5HT2C and 5-HT1A receptors was determined using a FLIPR Ca^2+ flux assay at WuXi AppTec (Hong Kong) Limited according to their standard protocols. Briefly, stably transfected cells expressing the receptor of interest and Gα15 in the case of 5-HT1A (HEK293 for 5-HT2A and 5-HT2B; CHO cells for 5-HT1A) were grown and plated in a 384 well plate and incubated at 37° C. and 5% CO2 overnight. A solution of 250 mM probenecid in 1 mL FLIPR assay buffer was prepared fresh. This was combined with a fluorescent dye (Fluo-4 Direct™) to make a final assay concentration of 2.5 mM. […] The fluorescent dye was then added to the assay plate along with assay buffer to a final volume of 40 μL. The cell plate was incubated for 50 min at 37° C. and 5% CO2 and placed into the FLIPR Tetra along with the compound plate. 10 μL of references and compounds were then transferred from the compound plate into the cell plate and the fluorescent signal was read.
A general note: Calcium flux is commonly read through the fluorescence of an indicator in the cells.

The next data set has as its target T2, 5-HT1A receptor (Homo sapiens, UniProt P08908).
T2 construct: expressed in transfected cells; host or cells: CHO cells, stably transfected
T2 sequence (P08908 1-422): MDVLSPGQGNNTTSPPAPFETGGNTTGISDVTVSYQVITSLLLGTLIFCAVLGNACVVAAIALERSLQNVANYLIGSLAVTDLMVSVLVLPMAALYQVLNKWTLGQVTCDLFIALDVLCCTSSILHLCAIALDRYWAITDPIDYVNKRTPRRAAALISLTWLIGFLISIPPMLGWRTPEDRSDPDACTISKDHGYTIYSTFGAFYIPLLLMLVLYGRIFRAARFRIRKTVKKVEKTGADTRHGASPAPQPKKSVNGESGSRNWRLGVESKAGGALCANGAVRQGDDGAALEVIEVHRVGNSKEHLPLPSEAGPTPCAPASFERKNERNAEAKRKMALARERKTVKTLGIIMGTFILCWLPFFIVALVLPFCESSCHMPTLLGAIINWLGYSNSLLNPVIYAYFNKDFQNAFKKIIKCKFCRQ
Kind of data set: cell-based. The following applies: agonist, Ca2+ flux; for Emax: CHO, CHO cells with Gα15, max dose, read-out: 5-HT1A % Act @ Max Dose; for EC50: CHO cells with Gα15. As for the experimental part: as §1

Another data set concerns the target T3, 5-HT1B receptor (Homo sapiens, UniProt P28222).
T3 construct: expressed in transfected cells
Kind of data set: cAMP accumulation functional assay at 5-HT1B. It is filed as cell-based. To be noted: agonist, cAMP accumulation, max dose; read-out: 5-HT1B % Act @ Max Dose. As to the method:
Functional Assay at 5-HT1B. Agonist activity at 5-HT1B was determined using a CAMP accumulation protocol at WuXi AppTec (Hong Kong) Limited according to their standard protocols. Briefly, stably transfected cells were plated in an OptiPlate-384 well plate, incubated at RT for 60 mins, and cAMP standard solution (800 nM, 10 μL) was added to the blank well. Then, 10 μL detection reagent was added to each well, the plate incubated for 60 mins at RT, and the plate read using En Vision.
(In general: Cyclic AMP is a second messenger, typically raised through Gs and lowered through Gi signalling.)

In data set [1] the target is T4, 5-HT2A receptor (Homo sapiens, UniProt P28223). As to the kind of experiment: cell-based. More on the design: expressed in transfected cells; host or cells: HEK293, stably transfected. The class given is cell-based. The following applies: Ca2+ flux; for Emax: HEK293, agonist, HEK293, max dose, read-out: 5-HT2A % Act @ Max Dose; for EC50: agonist, HEK293. As for the experimental part:
as §1

Data set [2] is described as follows: in vitro. It is filed as in vitro ADME, human. The following applies: human, microsomes, HLM 0.50 mg/mL, NADPH 1 mM, 1 μM compound, pH 7.4, 37° C., 60 min; for microsomal CLint: read-out: Intrinsic clearance (Clint); for half-life: read-out: half-life (t1/2).
Data set [3] is described as follows: in vitro. It is filed as in vitro ADME, mouse. The following applies: mouse, microsomes, MLM (male CD-1) 0.50 mg/mL, NADPH 1 mM, 1 μM compound, pH 7.4, 37° C., 60 min; for microsomal CLint: read-out: Intrinsic clearance (Clint); for half-life: read-out: half-life (t1/2). From the text: MLM Stability Pooled MLM from male CD-1 mice (BIOIVT M00501) were used.

Data set [4] in a line: in vitro. It is filed as in vitro ADME, rat. To be noted: rat, microsomes, RLM (male Sprague-Dawley) 0.50 mg/mL, NADPH 1 mM, 1 μM compound, pH 7.4, 37° C., 60 min; for microsomal CLint: read-out: Intrinsic clearance (Clint); for half-life: read-out: half-life (t1/2). An excerpt: RLM Stability Pooled RLM from male Sprague-Dawley rats (Xenotech R1000) were used.
The target of data set [5] is T4, 5-HT2A receptor. As to the kind of experiment: biochemical. It is filed as binding. More on the design: expressed in transfected cells; host or cells: HEK293, stably transfected. To be noted: [3H]ketanserin 1 nM; HEK293 stable cell line; 1 h, 25 °C. As for the experimental part: Affinity of the test compounds for the 5-HT2A receptor was determined in radioligand binding experiments with [^3H]ketanserin by WuXi AppTec (Hong Kong) Limited, using methods adapted from the literature and under conditions described in Table 1.

The structures appear in SMILES notation. Where two headings read alike, the source gives them in different places. Some results are limits rather than exact numbers.

T4 sequence (P28223 whole entry): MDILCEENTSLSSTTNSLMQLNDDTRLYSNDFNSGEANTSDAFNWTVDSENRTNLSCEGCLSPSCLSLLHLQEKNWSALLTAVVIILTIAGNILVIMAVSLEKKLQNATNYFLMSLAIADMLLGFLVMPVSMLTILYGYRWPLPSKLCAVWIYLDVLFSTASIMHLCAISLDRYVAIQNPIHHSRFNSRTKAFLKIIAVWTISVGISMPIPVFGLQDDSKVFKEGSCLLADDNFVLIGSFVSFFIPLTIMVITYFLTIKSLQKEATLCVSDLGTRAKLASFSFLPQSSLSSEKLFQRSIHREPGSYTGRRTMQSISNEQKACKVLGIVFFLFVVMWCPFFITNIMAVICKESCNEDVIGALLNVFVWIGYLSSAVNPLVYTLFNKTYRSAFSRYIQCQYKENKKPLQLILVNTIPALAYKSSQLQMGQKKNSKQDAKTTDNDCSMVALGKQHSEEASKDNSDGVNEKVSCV
T1 sequence (P41595 whole entry): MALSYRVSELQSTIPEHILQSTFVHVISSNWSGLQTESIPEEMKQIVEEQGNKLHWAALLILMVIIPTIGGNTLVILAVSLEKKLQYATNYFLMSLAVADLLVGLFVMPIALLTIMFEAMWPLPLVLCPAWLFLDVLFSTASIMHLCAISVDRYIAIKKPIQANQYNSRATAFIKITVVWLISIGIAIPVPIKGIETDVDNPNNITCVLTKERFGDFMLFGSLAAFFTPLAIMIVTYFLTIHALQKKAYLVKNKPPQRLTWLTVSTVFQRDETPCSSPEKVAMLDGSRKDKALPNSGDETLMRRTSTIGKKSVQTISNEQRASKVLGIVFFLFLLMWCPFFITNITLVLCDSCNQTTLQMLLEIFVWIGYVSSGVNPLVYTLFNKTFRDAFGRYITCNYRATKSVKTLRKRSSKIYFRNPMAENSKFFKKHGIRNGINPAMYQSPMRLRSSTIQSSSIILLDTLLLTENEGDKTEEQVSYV
T3 sequence (P28222 whole entry): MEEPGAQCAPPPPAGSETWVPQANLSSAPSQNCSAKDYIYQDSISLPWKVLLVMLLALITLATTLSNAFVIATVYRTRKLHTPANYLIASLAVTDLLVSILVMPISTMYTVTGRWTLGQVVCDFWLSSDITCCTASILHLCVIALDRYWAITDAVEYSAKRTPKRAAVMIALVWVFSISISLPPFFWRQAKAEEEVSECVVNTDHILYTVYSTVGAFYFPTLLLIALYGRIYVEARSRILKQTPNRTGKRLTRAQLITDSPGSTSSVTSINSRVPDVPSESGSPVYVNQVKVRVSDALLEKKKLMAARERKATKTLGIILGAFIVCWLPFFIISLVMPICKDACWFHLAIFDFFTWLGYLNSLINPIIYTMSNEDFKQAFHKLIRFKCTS

`CCCN1C[C@H](C(=O)N(CC)CC)C=C2c3cccc4[nH]c(Br)c(c34)C[C@H]21` [Compound 9, (6aR,9R)-5-bromo-N,N-diethyl-7-propyl-4,6,6a,7,8,9-hexahydroindolo[4,3-fg]quinoline-9-carboxamide]: the Emax at 5-HT2B receptor came out at 89.6%; at 5-HT1A receptor, 101%; at 5-HT1B receptor, 81.5%; on 5-HT2A receptor [1] it was 75.8%.
The EC50 is the concentration needed to bring the measured effect to its halfway point. Low values mean higher potency in that assay, high ones lower potency in that assay. Usually Ki stands for the dissociation constant of the complex between target and ligand, obtained from inhibition or displacement. High values mean a looser hold on the target, low ones a stronger hold on the target. With `CCN(CC)C(=O)[C@H]1C=C2c3cccc4[nH]cc(c34)C[C@H]2N(CC2CCCC2)C1` [Compound 90a, (6aR,9S)-7-(cyclopentylmethyl)-N,N-diethyl-4,6,6a,7,8,9-hexahydroindolo[4,3-fg]quinoline-9-carboxamide], the Emax was determined as 21.9% at 5-HT2B receptor, 135% at 5-HT1A receptor and 25.7% at 5-HT2A receptor [1]. Also, the EC50 was above 10 µM on 5-HT2B receptor, above 100 µM on 5-HT1A receptor and above 1 µM at 5-HT2A receptor [1]. Also, the results for the microsomal CLint in “in vitro [2]”, in the data set “in vitro [3]” and in “in vitro [4]” were 158 µL/min/mg, 712 µL/min/mg and 288 µL/min/mg, respectively. For the same compound, the half-life in the data set “in vitro [2]” was found to be 8.8 min; in “in vitro [3]”, 1.9 min; in “in vitro [4]”, 4.8 min. At 5-HT2A receptor [5], this compound gave a Ki of 0.0556 µM.
With `CCCN(CC)C(=O)[C@@H]1C=C2c3cccc4[nH]cc(c34)C[C@H]2N(Cc2cccc(OC)c2)C1` [Compound 93, (6aR,9R)—N-ethyl-7-(3-methoxybenzyl)-N-propyl-4,6,6a,7,8,9-hexahydroindolo[4,3-fg]quinoline-9-carboxamide], the Emax stood at 1.24% on 5-HT2B receptor, 21.1% at 5-HT1A receptor and 44.6% on 5-HT2A receptor [1]. In addition, the EC50 was above 10 µM on 5-HT2B receptor, above 100 µM on 5-HT1A receptor and 1.2 µM at 5-HT2A receptor [1]. Further, the microsomal CLint turned out to be 152 µL/min/mg in “in vitro [2]”, 600 µL/min/mg in the data set “in vitro [3]” and 423 µL/min/mg in the data set “in vitro [4]”. For the same compound, the half-life came to 9.1 min in the data set “in vitro [2]”, 2.3 min in “in vitro [3]” and 3.3 min in “in vitro [4]”. The compound further had a Ki on 5-HT2A receptor [5] of 0.00473 µM.
On to `COc1cccc(CN2C[C@H](C(=O)N3[C@@H](C)C[C@@H]3C)C=C3c4cccc5[nH]cc(c45)C[C@H]32)c1` [Compound 94, ((2S,4S)-2,4-dimethylazetidin-1-yl)((6aR,9R)-7-(3-methoxybenzyl)-4,6,6a,7,8,9-hexahydroindolo[4,3-fg]quinolin-9-yl)methanone], for which the values for the Emax at 5-HT2B receptor, at 5-HT1A receptor and on 5-HT2A receptor [1] were -1.21%, 64.8% and 30.4%, respectively. The concentration giving a half-maximal response (EC50) on 5-HT2B receptor was above 10 µM; on 5-HT1A receptor, above 100 µM; at 5-HT2A receptor [1] it was 0.792 µM. The microsomal CLint in “in vitro [2]” came out at 116 µL/min/mg; in the data set “in vitro [3]”, 1340 µL/min/mg; in “in vitro [4]” it was 352 µL/min/mg. Moreover, the half-life in the data set “in vitro [2]” was 11.9 min; in “in vitro [3]” it was 1 min; in “in vitro [4]” it was 3.9 min. In addition, at 5-HT2A receptor [5], the affinity corresponds to a Ki of 0.0137 µM.
On to `CC[C@@H](C)NC(=O)[C@@H]1C=C2c3cccc4[nH]cc(c34)C[C@H]2N(Cc2cccc(OC)c2)C1` [Compound 95, (6aR,9R)—N—((R)-sec-butyl)-7-(3-methoxybenzyl)-4,6,6a,7,8,9-hexahydroindolo[4,3-fg]quinoline-9-carboxamide], for which the Emax at 5-HT2B receptor is 0.13%; at 5-HT1A receptor it was 63.2%; on 5-HT2A receptor [1], 63.8%. The results for the EC50 on 5-HT2B receptor, at 5-HT1A receptor and at 5-HT2A receptor [1] were above 10 µM, 42.9 µM and 0.642 µM, respectively. Also, the results for the microsomal CLint in the data set “in vitro [2]”, in the data set “in vitro [3]” and in “in vitro [4]” were 685 µL/min/mg, 2020 µL/min/mg and 1600 µL/min/mg, respectively. For the same compound, the half-life was 2 min in the data set “in vitro [2]”, 0.7 min in the data set “in vitro [3]” and 0.9 min in the data set “in vitro [4]”. Moreover, affinity on 5-HT2A receptor [5] was put at a Ki of 0.0154 µM.
With `CCN(CC)C(=O)[C@@H]1C=C2c3cccc4[nH]cc(c34)C[C@H]2N(Cc2cccc(C)c2)C1` [Compound 98, (6aR,9R)—N,N-diethyl-7-(3-methylbenzyl)-4,6,6a,7,8,9-hexahydroindolo[4,3-fg]quinoline-9-carboxamide], the Emax worked out at 3.37% on 5-HT2B receptor, 31.2% at 5-HT1A receptor and 76.5% on 5-HT2A receptor [1]. The values for the EC50 on 5-HT2B receptor, on 5-HT1A receptor and at 5-HT2A receptor [1] were above 10 µM, above 100 µM and 0.431 µM, respectively. Besides, the microsomal CLint worked out at 91.4 µL/min/mg in “in vitro [2]”, 470 µL/min/mg in the data set “in vitro [3]” and 717 µL/min/mg in “in vitro [4]”. Besides, the half-life in the data set “in vitro [2]” came to 15.2 min; in “in vitro [3]”, 3 min; in the data set “in vitro [4]” it was 1.9 min. This compound displayed a Ki at 5-HT2A receptor [5] of 0.00826 µM.
Take `CCN(CC)C(=O)[C@@H]1C=C2c3cccc4[nH]cc(c34)C[C@H]2N(Cc2ccc3ccccc3c2)C1` [Compound 100, (6aR,9R)—N,N-diethyl-7-(naphthalen-2-ylmethyl)-4,6,6a,7,8,9-hexahydroindolo[4,3-fg]quinoline-9-carboxamide]: the Emax at 5-HT2B receptor turned out to be 18.4%; at 5-HT1A receptor, 68.4%; at 5-HT2A receptor [1], 74.6%. Besides, the EC50 was above 10 µM on 5-HT2B receptor, 20.8 µM on 5-HT1A receptor and 1.08 µM on 5-HT2A receptor [1]. Moreover, the microsomal CLint in the data set “in vitro [2]” came to 43.9 µL/min/mg; in the data set “in vitro [3]”, 117 µL/min/mg; in “in vitro [4]”, 167 µL/min/mg. In addition, the half-life in “in vitro [2]” was found to be 31.6 min; in “in vitro [3]” it was 11.8 min; in “in vitro [4]”, 8.3 min. The same compound displayed a Ki on 5-HT2A receptor [5] of 0.00384 µM.
Regarding `CCN(CC)C(=O)[C@@H]1C=C2c3cccc4[nH]cc(c34)C[C@H]2N(Cc2cccc3ccccc23)C1` [Compound 101, (6aR,9R)—N,N-diethyl-7-(naphthalen-1-ylmethyl)-4,6,6a,7,8,9-hexahydroindolo[4,3-fg]quinoline-9-carboxamide], the Emax on 5-HT2B receptor was found to be 11.7%; on 5-HT1A receptor, 61.8%; at 5-HT2A receptor [1], 86.5%. The values for the EC50 at 5-HT2B receptor, on 5-HT1A receptor and on 5-HT2A receptor [1] were above 10 µM, 71.1 µM and 0.271 µM, respectively. The values for the microsomal CLint in “in vitro [2]”, in the data set “in vitro [3]” and in “in vitro [4]” were 84.6 µL/min/mg, 483 µL/min/mg and 525 µL/min/mg, respectively. Further, the half-life amounted to 16.4 min in the data set “in vitro [2]”, 2.9 min in the data set “in vitro [3]” and 2.6 min in the data set “in vitro [4]”. This compound also had a Ki on 5-HT2A receptor [5] of 0.0245 µM.

The values are drawn from patent publication US20260317319A1, “NOVEL ERGOLINES AND METHODS OF TREATING MOOD DISORDERS” (Gilgamesh Pharma Inc., priority 2023, published 2026).
